Data reported in US6818654B2, “Antibacterial compounds” (Abbott Laboratories, priority 2002, dated 2004).
In brackets after ≈: the same amount, converted by molar mass.

Columns and labels:
[1] = tested on: Quinoline-Succeptable Streptococcus pneumoniae ATCC 6303; assay: MIC, agar dilution, quinoline-susceptible strain (code AA); assay type: cell-based; details: ATCC6303, 35-37° C., 20-24 hours
Text: Antibacterial activity of the compounds […] Committee for Clinical Laboratory Standards (1997), “Methods for dilution antimicrobial susceptibility tests for bacteria that grow aerobically,” approved standard M7-A4 (Wayne, Pa., USA). All strains tested were from the Abbott Laboratories culture collection and were either clinical isolates or reference strains obtained from the American Type Culture Collection (Manassas, Va., USA).

[2] = tested on: Quinoline-Resistant Streptococcus pneumoniae 7257; assay: MIC, agar dilution, quinoline-resistant strain (code BB); assay type: cell-based; details: 35-37° C., 20-24 hours
[3] = target: bacterial protein synthesis; assay: Translation assay, firefly luciferase reporter system with S30 Streptococcus pneumoniae extract; assay type: biochemical; details: S30 extract from quinoline-succeptable Streptococcus pneumoniae ATCC 46919; luciferase mRNA; read-out: IC50, concentration causing 50% inhibition of bacterial protein synthesis
Protocol: Bacterial protein synthesis inhibitory activity of the compounds and the aformentioned commercially-available antibacterials was determined by translation assays performed using the firefly luciferase reporter system described by Murray et al., (2001), “Staphylococcus aureus Cell Extract Transcription-Translation Assay: Firefly Luciferase Reporter System for Evaluating Protein Translation Inhibitors,” Antimicrob. Agents Chemother. 45(6): 1900-1904, replacing the Staphylococcus aureus S30 extract described therein with S30 Streptococcus pneumoniae extract from quinoline-succeptable Streptococcus pneumoniae ATCC 46919, and replacing plasmid coding for the luciferase gene with mRNA (encoding produced by in vitro transcription from the plasmid pAS10rbs3) which encoded the luciferase gene with an upstream Streptococcus pneumoniae promoter and Shine-Dalgarno site.

**Q.** How did the MIC [1] turn out when N[C@@H]1[C@H]2CN(c3nc4c(cc3F)c(=O)c(C(=O)O)cn4-c3ccc(F)cc3F)C[C@@H]12 [Trovafloxacin] was run?
**A.** 0.06 µg/mL (≈ 0.144 µM)

**Q.** And the MIC [2]?
**A.** 4 µg/mL (≈ 9.61 µM)

**Q.** What does the source list for CCn1cc(C(=O)O)c(=O)c2cc(F)c(N3CCNCC3)cc21 [Norfloxacin]?
**A.** MIC [1]: 1 µg/mL (≈ 3.13 µM); MIC [2]: 32 µg/mL (≈ 100 µM)

**Q.** How did the IC50 [3] turn out when CC(=O)NC[C@H]1CN(c2ccc(N3CCOCC3)c(F)c2)C(=O)O1 [Linezolid] was run?
**A.** ~3000 nM

**Q.** What about the MIC [1] of the same compound?
**A.** 2 µg/mL (≈ 5.93 µM)

**Q.** And the MIC [2]?
**A.** 0.5 µg/mL (≈ 1.48 µM)
